Entries after “also recorded” stand apart in the source; their conditions may differ.
Key:
mGluR1α [1] = assay: Glutamate/NMDA-induced C-terminal truncation of mGluR1α in cultured cortical neurons (immunoblot); format: cell-based
Excerpt: Total cell lysates were separated by SDS-PAGE and probed with an antibody against the carboxyl terminus (residue 1142-1160) of mGluR1α. […] Total cell lysates were probed with an anti-myc antibody. […] Total cell lysates were probed with antibodies against mGluR5, G1uR2/3 and VGluT1 respectively.
Total cell lysate was collected immediately after treatment and subjected to SDS-PAGE and immunoblotting with an antibody against the carboxyl terminus (residues 1142-1160) of mGluR1α (FIG. 2A). […] Neurons were transfected with a calcium phosphate precipitation method modified for high transfection rate (Jian et al., Gene Ther 11:1301-1311, 2004).
Cortical neurons were treated with NMDA at the indicated concentrations for 1 h or treated with NMDA (10 μM) for the indicated times. Total cell lysates were separated by SDS-PAGE and probed with antibodies against mGluR1α1142-1160, Results were normalized over control values and are means±s.e.m. of 4 experiments.
To determine whether activation of mGluR1α itself was required for the truncation, two distinct mGluR1α antagonists were applied.
To further characterize NMDA-induced mGluR1α truncation, the concentration- and time-dependencies of the effects of NMDA were studied. Cortical neurons were first incubated with different concentrations of NMDA for a fixed period of time (1 hour) (FIG. 3F). […] In a following experiment, cortical neurons were incubated with 10 μM NMDA for different durations ranging from 1 to 60 min (FIG. 3G).
Cortical neurons were treated with NMDA (10 μM, 1 h). Total cell lysates were separated by SDS-PAGE and probed with antibodies against spectrin and mGluR1α1142-1160, respectively. Only the degradation bands of spectrin (spectrin DB, at ˜145 KD) are shown. […] In FIG. 4C, purified myc-mGluR1α was digested with μ-calpain at the indicated concentrations (U/ml) for 30 min. The digested material was processed for SDS-PAGE and subjected to silver staining or immunoblots with anti-myc or anti-mGluR1α1142-1160 antibodies. […] The 1st lane was the myc-mGluR1α immunoprecipitated from 293 cells; the 2nd and 3rd lanes were immunoprecipitated myc-mGluR1α digested with indicated concentration of calpain. […] FIG. 4F is the alignment of mGluR1 (902-941) and mGluR5 (889-927) surrounding the calpain cleavage site.
In this set of experiments, we determined which protease(s) mediated NMDA-induced truncation of mGluR1α. […] Cortical neurons were pretreated with a calpain inhibitor, the cell-permeable calpain-inhibitor III, or the caspase inhibitor cpm-VAD-CHO for 2 hours and then incubated in the absence or presence of 100 µM NMDA for 1 hour. […] To further confirm calpain activation by NMDA under our experimental conditions, we determined the levels of the calpain-specific spectrin degradation fragments.

myc-mGluR1α = assay: Targeting of myc-mGluR1α in transfected cortical neurons after NMDA (immunostaining); format: cell-based; conditions: NMDA 50 μM, 1 hour; 124 out of 367 neurons
Protocol: In FIG. 7A, cortical neurons were co-transfected with DsRED and myc-mGluR1α. After 48 h, neurons were fixed and stained with anti-myc and anti-DsRED antibodies. Some of the neurons were pre-treated with NMDA (50 μM, 1 h), and recovered for 3 h after washing out NMDA before fixation. Myc-mGluR1α (upper panel) was absent in axons (arrowhead) under control conditions. After pre-treatment with NMDA (lower panel), staining of myc-mGluR1α appeared in the proximal segment of axons. In FIG. 7B, cortical neurons were co-transfected with DsRED and myc-mGluR1α. After 48 h, neurons were fixed and stained with anti-DsRED and anti-mGluR1α1142-1160 antibodies with (lower panel) or without (upper panel) pretreatment with NMDA. Staining for mGluR1α was absent from axons in both conditions. In FIG. 7C, cortical neurons were co-transfected with DsRED and myc-mGluR1α936Δ. After 48 h, neurons were fixed and stained with anti-myc and anti-DsRED antibodies. […]
Previous studies have shown that the C-terminus domain of mGluR1α is crucial for its dendritic localization. […] But in ˜34% of neurons treated with NMDA (124 out of 367 neurons counted), the N-terminal fragment of wild-type mGluR1α could be detected in axons, especially in the proximal segment, whereas immunoreactivity against the C-terminus of mGluR1α was still restricted to dendrites (FIG. 7B).

cortical neurons = assay: NMDA/DHPG neuronal toxicity in cortical neurons (EthD-1/Calcein AM live/dead); format: cell-based; conditions: 100 μM NMDA for 1 hour; 24 hours after treatment
Excerpt: In FIGS. 8a and b, cortical neurons were co-transfected with green fluorescent protein (GFP) and vector DNA, myc-mGluR1α or myc-mGluR1α936Δ, respectively. […] Twelve hours later, neurons were stained with EthD-1 to label dead cells. Arrowheads in FIG. 8a indicate EthD-1 positive GFP-expressing neurons. * p<0.05. FIGS. 8c and d are representative photos and bar graphs showing differential roles of endogenous mGluR1 in neuronal toxicity before and after NMDA-induced truncation. Cortical neurons were treated as indicated and were stained with EthD-1 (for dead cells) and calcein AM (for live cells) 24 hours later. * p<0.001.
We then tested whether calpain-mediated truncation of endogenous mGluR1α also alters its roles in excitotoxicity. We used NMDA to elicit mGluR1α truncation and evaluated the roles of mGluR1 in neuronal toxicity by applying DHPG before and after truncation. Fourteen DIV cortical neurons cultured on 18×18 mm coverslips were divided into 6 groups, which received the following treatments, respectively: 1) “Control”: vehicle; 2) “NMDA”: 100 μM NMDA for 1 hour; 3) “DHPG before NMDA”: DHPG, 100 μM, for 1 hour, followed by 100 μM NMDA for 1 hour; 4) “DHPG after NMDA”: NMDA, 100 μM, for 1 hour, followed by 100 μM DHPG for 1 hour; 5) “DHPG+LY before NMDA”: 100 μM DHPG was co-applied with 100 μM LY367385 for 1 hour and followed by 100 μM NMDA for 1 hour; 6) “DHPG+LY after NMDA”: NMDA 100 μM for 1 hour, followed by 100 μM DHPG co-applied with 100 μM LY367385. Twenty-four hours after treatment, all neurons were stained for 20 minutes with 0.5 μM EthD-1 to label dead cells and 2 μM Calcein AM to label live cells. After three washes with culture medium, coverslips were mounted and one microscopy photo was immediately taken from the center area of each coverslip. EthD-1 and Calcein AM positive cells on each photo were then counted. The percentage of cell death was calculated as the number of EthD-1 positive cell/(number of EthD-1 positive cell+number of Calcein AM positive cell)*100%.

cultured neurons = assay: Blockade of NMDA neurotoxicity in cultured neurons (live/dead cell assay); format: cell-based; conditions: peptide 8 μM, pretreated 90 min; NMDA 50 μM 1 h; analyzed 12 h later
Protocol: In this figure, cultured neurons were pretreated with the tat-peptide for 90 min. They were then treated with NMDA (50 μM) for 1 h. They were analyzed 12 h later by live/dead cell assay (0.5 μM EthD-1 and 2 μM Calcein AM).

mGluR1α [2] = assay: In vivo truncation of mGluR1α in hippocampus after kainic acid injection; conditions: peptide i.p. 90 min before kainic acid 30 mg/kg s.c., mice
Protocol: (§1) The tat-peptide was injected i.p. 90 min before kainic acid injection. Note that the peptide had no effect on seizure intensity (bottom left).
The objective of this set of experiments was to verify that the feedback mechanism of the present invention could take place in vivo and participate in excitotoxicity. We used the kainic acid model of excitotoxicity, as this model has been widely used to study the mechanisms underlying in vivo excitotoxicity (Wang et al. Mol Neurobiol 31:3-16, 2005). Mice were injected with kainic acid and sacrificed at different times after injection. Levels of mGluR1α were determined in hippocampus with both Western blots and immunohistochemistry (FIG. 10).

hippocampal neurons = assay: Kainic acid-induced neuronal damage (silver staining) and seizures in mice; format: in vivo
Protocol: as §1
They were sacrificed after 7 days and brains processed for silver staining, a marker of cell damage. Note the heavy labeling of the pyramidal cell layer in the KA alone group.
The effect of the tat-mGluR1 peptide on kainic acid-induced neuronal damage was also evaluated.

mGluR1 = assay: Brain membranes treated with purified calpain and calcium: mGluR1 truncation; format: biochemical; conditions: purified calpain, calcium
Protocol: (§2) As previously mentioned, calpain inhibitors were previously shown to exert neuroprotective effects in some models of neurodegeneration, and it could be argued that the effects of the tat-mGluR1 peptide we observed were due to some calpain inhibitor effects of the peptide. However, the inventors of the present invention have discovered that this is not likely the case. In particular, when brain membranes were treated with purified calpain in the presence of calcium, truncation of both mGluR1 and spectrin was observed. […] The inventors believe that the peptide acts as a calpain substrate competing with mGluR1 for calpain. The selective protection of tat-mGluR1 has the advantage that it may act as a selective blocking agent without disrupting calpain's other enzymatic activities. Thus, a blocking agent of the present invention will have the advantage of having reduced side-effect profile than calpain inhibitors.

spectrin = assay: Brain membranes treated with purified calpain and calcium: spectrin degradation; format: biochemical; conditions: purified calpain, calcium
Protocol: as §2

[3] = system: cultured hippocampal slices; assay: OGD-induced cell death in cultured hippocampal slices (LDH release, PI uptake); format: cell-based; conditions: 10 μM for 3 h before and during OGD (30 min); 3 h and 24 h after OGD
Protocol: Cultured slices were subjected to OGD for 30 min, and returned to normal glucose and oxygen conditions for 24 h. Neuronal damage was assessed by the propidium iodide (PI) uptake method, which labels damaged cells (a, b), and by LDH release in culture medium (c).
We used a well-known in vitro stroke model, combined oxygen/glucose deprivation in cultured hippocampal slices, to test the idea that the mechanism we have proposed, i.e., calpain-mediated truncation of mGluR1, accounts for neuronal death in stroke. Furthermore, we tested the neuroprotective effects of the tat-mGluR1 peptide in this stroke model. In this model, cultured hippocampal slices are treated for various periods of time (30-60 min) by changing the cultured medium to a medium without glucose and replacing the normal air/5% CO2 with nitrogen. After this period of time, slices are returned to normal glucose-containing medium and exposed to air/5% CO2 and are cultured for again various periods of time. Cell death is evaluated by measuring the amount of LDH release in the medium at various times, as well as by the extent of Propidium Iodide (PI) uptake in the cells (LDH release in the medium is an index of membrane damage, as LDH is a cytoplasmic enzyme; likewise, PI is generally not taken up by cells, except if the cell membrane is severely compromised).

mGluR1α [4] = assay: OGD-induced mGluR1 truncation in cultured hippocampal slices (immunoblot); format: cell-based; conditions: longer OGD (50-min), 6 or 24 hours recovery
Protocol: Cultured hippocampal slices were subjected to 50-min OGD and returned to normal culture condition for another 6 or 24 hours.

Molecule | minimum time required to induce truncation (mGluR1α [1]; 10 μM NMDA) [min] | treatment time after which truncation was maximal (mGluR1α [1]; 10 μM NMDA) [min] | EC50 (mGluR1α [1]; 1 hour incubation) [µM] | minimum concentration required to induce a significant mGluR1α truncation (mGluR1α [1]; 1 hour incubation) [µM] | neurons with N-terminal fragment of mGluR1α detected in axons (myc-mGluR1α) [%] | cell death (cortical neurons) [%] | prevention of NMDA-mediated neurotoxicity (cultured neurons) | reduction of kainic acid-induced mGluR1 truncation (mGluR1α [2]) | effect on kainic acid-induced neuronal damage (silver staining of pyramidal cell layer) (hippocampal neurons; peptide 100 mg/kg i.p. 90 min before kainic acid 30 mg/kg s.c., 7 days) | effect on severity or duration of kainic acid-induced seizures (hippocampal neurons; peptide i.p. 90 min before kainic acid) | prevention of calpain-mediated mGluR1 truncation (mGluR1) | prevention of calpain-mediated spectrin degradation (spectrin) | neuroprotection assessed with LDH release [3] | neuroprotection assessed with PI uptake [3] | block of OGD-induced mGluR1 truncation (mGluR1α [4]) | block of OGD-induced mGluR1 truncation (mGluR1α [4]; listed as TAT-mGluR1α fusion peptide)
CN[C@H](CC(=O)O)C(=O)O [NMDA] | 5 | 20 | ~10 | 10 | ~34 | 37 | – | – | – | – | – | – | – | – | – | –
YGRKKRRQRRRVIKPLTKSYQGSGK [tat-mGluR1 peptide] | – | – | – | – | – | – | almost completely prevented | significantly reduced | dramatically reduced; also recorded: significantly reduced | did not influence | prevented | not | complete neuroprotection | complete neuroprotection | almost completely blocked | partially restored

Reference: patent publication US8642559B2, “C-terminal domain truncation of mGluR1α by calpain and uses thereof” (priority 2006, dated 2014)
